According to patent publication US20090054376A1, “BENZOFURAN DERIVATIVES WITH THERAPEUTIC ACTIVITIES” (Pharmos Corporation, priority 2005, published 2009):
Where two headings read alike, the source gives them in different places.

Key:
Human CB1 Receptor = target: T1, Human CB1 Receptor (Homo sapiens, UniProt P21554); assay: [35S]GTPγS-binding assay, hCB1; format: biochemical; settings: NB = no binding; for Emax: upper plateau of curve
T1 construct: expressed in transfected cells; host or cells: HEK-293 cells (membranes)
T1 sequence (P21554 whole entry): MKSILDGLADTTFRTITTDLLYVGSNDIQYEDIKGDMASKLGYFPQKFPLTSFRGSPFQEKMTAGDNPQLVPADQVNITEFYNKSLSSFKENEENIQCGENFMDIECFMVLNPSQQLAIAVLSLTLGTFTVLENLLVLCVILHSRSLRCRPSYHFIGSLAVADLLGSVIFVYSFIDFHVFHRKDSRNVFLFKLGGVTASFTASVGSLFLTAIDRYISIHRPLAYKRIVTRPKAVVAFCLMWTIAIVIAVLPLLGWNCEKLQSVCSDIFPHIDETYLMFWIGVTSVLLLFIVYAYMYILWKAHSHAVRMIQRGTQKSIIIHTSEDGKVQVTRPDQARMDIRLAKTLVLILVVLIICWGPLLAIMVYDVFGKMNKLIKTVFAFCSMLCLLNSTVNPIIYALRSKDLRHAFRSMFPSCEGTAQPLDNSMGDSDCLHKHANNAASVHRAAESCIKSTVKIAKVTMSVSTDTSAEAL
Method: (§1) Functional activity of compounds of the invention toward the cannabinoid receptors was determined by stimulation of [^35S]-GTPγS binding using membranes from HEK-293 cells expressing the hCB1 receptor and membranes expressing the hCB2 receptor derived from either Sf9 (PerkinElmer) or from HEK-293 cells. Activities were compared to that of the known cannabinoid full agonist CP55940 (Alexis). The purpose of this experiment is to determine the potency of the compounds of the invention as agonists or antagonists toward each of the receptor tested.
(§2) [^35S]-GTPγS binding reactions were performed at 30° C. in 96-well plates containing 5-10 μg membrane protein suspended in 0.1 ml binding buffer [20 mM HEPES-NaOH, pH 7.4, 5 mM MgCl2, 100 mM NaCl, 0.2% (w/v) bovine serum albumin] supplemented with 50 μM GDP and 0.06 nM-10 μM of the compound being tested. Binding was initiated by the addition of [^35S]GTPγS (0.3 nM final concentration). Incubations were performed for 90 minutes and were terminated by filtration on GF/C filter plates (PerkinEimer). Filters were washed ten times with ice-cold wash buffer (20 mM HEPES-NaOH, pH 7.4, 10 mM sodium pyrophosphate). Non-specific binding was measured in the presence of 15 μM GTPγS.
(§3) Assays were performed in duplicates. Data was analyzed by plotting on the X axis the log concentration against percent of specific [^35S]GTPγS binding out of basal [^35S]GTPγS binding on the Y axis, non-linear regression is then performed using GraphPad Prism, version 3.0 (GraphPad, San Diego, Calif.) to calculate the EC50 and Emax of the compound. The EC50 value represents the concentration at which there is 50% [^35S]GTPγS binding and the Emax value the upper plateau of the curve.

Human CB2 Receptor = target: T2, Human CB2 Receptor (Homo sapiens, UniProt P34972); assay: [35S]GTPγS-binding assay, hCB2; format: biochemical; settings: for selectivity toward CB2: GTPγS agonism, CB2 versus CB1; for EC50 / Emax / agonistic activity toward cannabinoid receptors (in words): GTPγS; for EC50 / Emax: Human CB2 Receptor, NB = no binding; for Emax: upper plateau of curve; for agonistic activity toward cannabinoid receptors (in words): hCB1 and hCB2
T2 construct: host or cells: Sf9 or HEK-293 cells (membranes)
T2 sequence (P34972 whole entry): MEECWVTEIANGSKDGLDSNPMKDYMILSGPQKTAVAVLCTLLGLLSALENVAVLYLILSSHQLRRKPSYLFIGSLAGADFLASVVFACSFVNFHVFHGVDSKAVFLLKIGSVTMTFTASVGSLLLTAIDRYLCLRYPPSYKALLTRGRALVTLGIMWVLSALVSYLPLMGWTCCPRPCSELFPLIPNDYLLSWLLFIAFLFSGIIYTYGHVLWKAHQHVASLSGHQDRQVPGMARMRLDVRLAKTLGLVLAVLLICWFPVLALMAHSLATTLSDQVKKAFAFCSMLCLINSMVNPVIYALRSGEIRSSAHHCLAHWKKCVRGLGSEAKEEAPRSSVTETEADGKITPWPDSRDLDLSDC
Method: as §1, §2, §3

[1] = system: visceral pain writhing responses; assay: Visceral pain, acetic acid induced writhing responses; format: in vivo, Male ICR mice; settings: Mus musculus, iv, single dose 2 mg/kg i.v., compared to untreated group; read-out: Percent Inhibition of Visceral Pain Writhing Responses
Method: Male ICR mice (average body weight 25 g, Harlan, Israel) were pretreated by i.v. injection at volume dose of 5 ml/kg of vehicle, control and test compounds at various doses. Other routes of administration were tested for selected compounds including i.m. or s.c. injections at volume dose of 2.5 ml/kg and p.o. gavage at volume dose of 5 ml/kg. Compounds were dissolved in CREMOPHOR®:Ethanol and diluted 1:20 in saline prior to injection or gavage. Compounds administered i.v. were injected fifteen minutes before pain induction, whereas compounds administered i.m., s.c. or p.o. were supplied thirty minutes before pain induction, unless otherwise indicated. Each treatment group, except for controls comprising at least 30 animals, was composed of at least 6 animals. Fifteen or thirty minutes after drug administration, depending on the route of administration, the mice were injected i.p. with 10 ml/kg of 0.6% acetic acid and the number of visceral pain related behaviors (writhing movements globally defined as WR, i.e. stretching, contractions of the abdomen accompanied by an elongation of the body and extension of the hind limbs) was counted over a period of 5 minutes, starting 5 minutes after the acetic acid administration. These visceral pain related behaviors were globally defined as writhing responses (WR). The results are expressed as mean number of writhing responses ±SEM. Data were analyzed using analysis of variance (ANOVA) followed by post-hoc Fisher test.

IL-1β = assay: Gene expression in LPS activated RAW 264.7 macrophages, IL-1β; format: cell-based, mouse; settings: RAW 264.7, 10 μM, LPS 1 μg/ml, RNA 3 hrs after activation, vs vehicle treated activated cells
Method: (§4) RAW 264.7 macrophages, a mouse cell line (ATCC # TIB 71), were grown in Dulbecco's modified Eagle's medium (DMEM) with 4 mM L-glutamine adjusted to contain 1.5 g/L sodium bicarbonate, 4.5 g/L glucose, and 10% heat inactivated fetal bovine serum. Cells were grown in tissue culture flasks and seeded at appropriate density into 6 wells tissue culture plates. Four million Raw cells in half a milliliter were stimulated with 1 μg/ml LPS E. coli 055:B5 (DIFCO Laboratories). The mouse macrophages were pre-treated for one hour with controls or 10 μM of test compounds, and later on activated with LPS. RNA samples were extracted from the cells 3 hrs after activation and gene expression levels were analyzed by real-time RT-PCR. In parallel, supernatants were collected and secretion of inflammatory mediators was analyzed using ELISA techniques according to the instructions of the kit manufacturer.
(§5) Total RNA is prepared using SV total RNA isolation system (Promega). The cells were homogenized in lysis buffer. The lysates were transferred to an RNA isolation column, treated with DNAse, washed and eluted according to kit instructions. RNA concentrations were determined using GeneQuant II (Pharmacia-Amersham). Complementary DNA (cDNA) was synthesized from total RNA using […] II reverse transcriptase (Life Technologies). 2 μg of total RNA were combined with an oligo (dT)15 primer, 0.5 mM dNTP mix, 8 units of reverse transcriptase and other reaction components up to a final volume of 20 μl, according to the kit instructions. The reaction mixture was incubated at 42° C. for 45 min and inactivated at 70° C. for 15 minutes. Quantitative real-time RT-PCR included 1 μl of the cDNA, 300 nM of the appropriate forward and reverse primers (according to the gene monitored) and 7.5 μl of the reaction mix containing buffer, nucleotides, Taq polymerase and SYBER green (SYBER Green master mix, Applied Biosystems), in a total reaction volume of 15 μl. Gene amplification was obtained using the GeneAmp 5700 sequence detection system (Applied Biosystems). Amplification included one stage of 10 minutes at 95° C. followed by 40 cycles of a 2-steps loop: 20 seconds at 95° C., and 1 minute at 60° C. During each annealing step, the amount of the amplified product was measured by the fluorescence of the double strand DNA binding dye, SYBER Green. The cycle of threshold (CT), representing the PCR cycle at which an increase in fluorescence above a baseline signal can be first detected, was determined for each product. A delay of one PCR cycle in the CT is translated into a two-fold decrease in starting template molecules and vice versa. The changes in the CT of the specific gene product were normalized to the changes in the CT of housekeeping cyclophilin or GAPDH as reference genes. Results were expressed as fold increase of gene expression in treated or untreated activated cells above the resting cells, after normalization to cyclophilin or GAPDH. Cells were also tested for viability to confirm that any effect on gene expression was indeed due to modulation of transcription of a specific target and not to cytoxicity.
(§6) Results were further expressed as percent inhibition of gene expression in compound treated activated cells over vehicle “treated” activated cells. Since the modulation of IL-10 and TNF-α gene expression by the compounds of the invention is relatively minor, it is not reported. […] Inhibition above 50% was considered significant.

iNOS = assay: Gene expression in LPS activated RAW 264.7 macrophages, iNOS; format: cell-based, mouse; settings: RAW 264.7, 10 μM, LPS 1 μg/ml, RNA 3 hrs after activation, vs vehicle treated activated cells
Method: as §4, §5, §6

MCP-1 = assay: Gene expression in LPS activated RAW 264.7 macrophages, MCP-1; format: cell-based, mouse; settings: RAW 264.7, 10 μM, LPS 1 μg/ml, RNA 3 hrs after activation, vs vehicle treated activated cells
Method: as §4, §5, §6

[2] = system: carrageenan induced inflammatory pain and paw edema; assay: Inflammatory pain and paw edema induced by carrageenan; format: in vivo, Male Sprague Dawley rats; settings: Rattus norvegicus, ip, 3 hours; for inhibition in vivo at 3 mg/kg: 3 mg/kg i.p. (one asterisk)
Method: Male Sprague Dawley rats (average body weight 200 g, Harlan, Israel) were transiently sedated by placement on dry ice for the duration of the injections. Rats were injected subcutaneously, in the subplantar region of one (right) paw with 0.1 ml of 2% w/v λ Carrageenan in sterile saline. […] Test compounds were, unless otherwise stated, administered i.p. at initial single dose of 3, 10 or 20 mg/kg, and volume dose of 5 ml/kg, immediately after the carrageenan injection. Selected compounds were also tested p.o. following oral gavage. Vehicle and celecoxib treated animals were used as controls. Each treatment group comprised at least seven animals.
Before induction of inflammatory pain and three hours after injection, the animals reactions to pain stimuli were tested in two systems. The first stimulus was thermal and assessed by the Plantar Test according to Hargreaves, using Ugo Basile Model 7370. The scale was set to an intensity of 50 arbitrary units. The latency time till the animal lift a paw as a reaction to the thermal stimulus was recorded for both the inflamed and non-inflamed hind paws. The second stimulus was mechanical (tactile) and assessed using a Dynamic Plantar Sesthesiomether (Ugo Basile Model 73400-002). […] Finally, the impact on paw edema was assessed. Paw thickness was measured using a dial thickness gauge (Spring-dial, constant low pressure gauge, Mitutoyo, TG/L-1, 0.01 mm) and paw volume was measured using a plethysmometer (model #7150, Ugo Basile, Italy). At the end of the study, animals were euthanized.
The results are measured as the differences between the two hind paws at time 0 and 3 hours both as ALT, for the latency time in the thermal part of the study, and as ΔForce, for the mechanical part of the study. The paw volume is expressed as percent from vehicle treated animals. Results are expressed as mean±SEM for each treatment group and the differences among those groups are analyzed by analysis of variance (ANOVA) followed by post-hoc Tukey's test.
Results refer to i.p. treatment with 10 mg/kg. Results marked with one asterisk refer to a dose 3 mg/kg, whereas two asterisks refer to 20 mg/kg. Celecoxib is included as reference.

Row | SMILES | EC50 (Human CB1 Receptor) [nM] | Emax (Human CB1 Receptor) [%] | selectivity toward CB2 (Human CB2 Receptor) | EC50 (Human CB2 Receptor) [nM] | Emax (Human CB2 Receptor) [%] | agonistic activity toward cannabinoid receptors (in words) (Human CB2 Receptor) | inhibition in vivo at 2 mg/kg [1] [%] | Percent inhibition of gene expression, IL-1β (IL-1β) | Percent inhibition of gene expression, iNOS (iNOS) | Percent inhibition of gene expression, MCP-1 (MCP-1) [%] | inhibition in vivo at 20 mg/kg ([2]; 20 mg/kg i.p. (two asterisks), reduction in paw swelling, read-out: Percent Inhibition of Inflammatory Pain Responses, Edema) [%] | inhibition in vivo at 3 mg/kg ([2]; mechanical stimulus, read-out: Percent Inhibition of Inflammatory Pain Responses, ΔForce) [%] | inhibition in vivo at 3 mg/kg ([2]; reduction in paw swelling, read-out: Percent Inhibition of Inflammatory Pain Responses, Edema) [%] | inhibition in vivo at 3 mg/kg ([2]; thermal stimulus, read-out: Percent Inhibition of Inflammatory Pain Responses, ΔLT) [%]
1 | CCCCCCC(C)(C)c1cc(OC(=O)C=CC(=O)O)c2c(c1)OC1C(I)CCCCC21 (stereo not drawn) [Compound C7S-28, But-2-enedioic acid mono-[2-(1,1-dimethylheptyl)-9-iodo-5,6,7,8,9,9a-hexahydro-4bH-10-oxa-benzo[α]azulen-4-yl]ester] | 217 | 118 | about 10 fold | 16 | 44 | agonists toward both receptors with some degree of selectivity toward the CB2 receptor | 56 |  |  |  |  |  |  | 
2 | CCCCCCC(C)(C)c1cc(O)c2c(c1)OC1C(I)CCCCC21 (stereo not drawn) [Compound C7S-26, 2-(1,1-Dimethylheptyl)-9-iodo-5,6,7,8,9,9a-hexahydro-4bH-10-oxa-benzo[α]azulen-4-ol] | 20 | 155 | about 285 fold | 0.07 | 38 | agonists toward both receptors with some degree of selectivity toward the CB2 receptor | 26 |  |  |  |  |  |  | 
3 | CCCCCCC(C)(C)c1cc(O)c2c(c1)OC1CCCCC21 (stereo not drawn) [Compound C6S-1, 3-(1,1-Dimethylheptyl)-5a,6,7,8,9,9a-hexahydro-dibenzofuran-1-ol] |  |  |  |  |  |  | 39 | NO (NO indicates that the compound tested did not significantly affect the transcription of the gene assessed and that its activity is comparable to vehicle, within ±20% from this control) | NO (NO indicates that the compound tested did not significantly affect the transcription of the gene assessed and that its activity is comparable to vehicle, within ±20% from this control) | 66 | 48 |  |  | 
4 | CCCCCCC(C)(C)c1cc(OC(=O)C=CC(=O)O)c2c(c1)OC1CCCCCC21 (stereo not drawn) [Compound C7S-9, But-2-enedioic acid mono-[2-(1,1-dimethylheptyl)-5,6,7,8,9,9a-hexahydro-4bH-10-oxa-benzo[α]azulen-4-yl]ester] | > 10000 |  |  | 712 | 52 |  | 26 |  |  |  |  |  |  | 
5 | CCCCCCC(C)(C)c1cc(O)c2c(c1)OC1CC(C)(C)CCC21 (stereo not drawn) [Compound C6S-17, 3-(1,1-dimethylheptyl)-7,7-dimethyl-5a,6,7,8,9,9a-hexahydro-dibenzofuran-1-ol] | 2880 | -25 |  | 4 | 43 | agonists specific toward the CB2 receptor | 38 |  |  |  |  | 37 | 44 | 60
6 | CCCCCCC(C)(C)c1cc(O)c2c(c1)OC1C(O)CCCCC21 (single isomer, unassigned) [Compound C7S-29, 2-(,1-dimethylheptyl)-5,6,7,8,9,9a-hexahydro-4bH-10-oxa-benzo[α]azulen-4,9-diol] | 79 | 41 | non-selective agonist | 54 | 60 | agonists toward both receptors with some degree of selectivity toward the CB2 receptor | > 90 |  |  |  |  |  |  | 
